Test results as given in patent publication US11406629B2, “Solid forms comprising 4-amino-2-(2,6-dioxopiperidine-3-yl)isoindoline-1,3-dione and a coformer, compositions and methods of use thereof” (Celgene Corporation, priority 2013, dated 2022).
Converted amounts (≈) assume the structure as drawn. Read-outs that look alike come from different tables or passages of the source.

What was measured:
[1] = Slurry of Form B of pomalidomide in EtOH, 0.1 N HCl, or water (solid form conversion); assay type: physicochemical; settings: slurring in EtOH, 0.1 N HCl, or water for 3 days
From the text: In one embodiment, without being limited by particular theory, Form B is a metastable form of pomalidomide.

[2] = Solubility of pomalidomide in various solvents at ambient temperature (visual inspection, solvent aliquot addition); assay type: physicochemical
Experimental: Solubility was estimated by treating a weighed sample of pomalidomide with measured aliquots of the test solvent at ambient temperature, with shaking and/or sonication between aliquots. Dissolution was determined by visual inspection. Solubility numbers were calculated by […]. The actual solubilities may be greater than the numbers calculated because of the use of solvent aliquots that were too large or because of slow dissolution rates. […] The solubility number is expressed as “greater than” if dissolution occurred on addition of the first solvent aliquot.

Row | Structure (SMILES) | Solid form stability on slurrying [1] | solubility ([2]; Acetone) [µg/mL] | solubility ([2]; DMF:acetone (1:2)) [µg/mL] | solubility ([2]; Hexafluoroisopropanol) [µg/mL] | solubility ([2]; THF:water (95:5)) [µg/mL] | solubility ([2]; organic solvent or mixture, thermodynamic from solid, 2,2,2-trifluoroethanol, read-out: Solubility) [µg/mL] | solubility ([2]; organic solvent or mixture, thermodynamic from solid, 2-methyltetrahydrofuran, read-out: Solubility) [µg/mL] | solubility ([2]; organic solvent or mixture, thermodynamic from solid, Acetonitrile, read-out: Solubility) [µg/mL] | solubility ([2]; organic solvent or mixture, thermodynamic from solid, DMF, read-out: Solubility) [µg/mL] | solubility ([2]; organic solvent or mixture, thermodynamic from solid, DMF:methanol (1:1), read-out: Solubility) [µg/mL] | solubility ([2]; organic solvent or mixture, thermodynamic from solid, DMF:methanol (1:2), read-out: Solubility) [µg/mL] | solubility ([2]; organic solvent or mixture, thermodynamic from solid, Dichloromethane, read-out: Solubility) [µg/mL] | solubility ([2]; organic solvent or mixture, thermodynamic from solid, Methanol, read-out: Solubility) [µg/mL] | solubility ([2]; organic solvent or mixture, thermodynamic from solid, acetone:water (95:5), read-out: Solubility) [µg/mL] | solubility ([2]; tetrahydrofuran (THF)) [µg/mL]
1 | Nc1cccc2c1C(=O)N(C1CCC(=O)NC1=O)C2=O (stereo not drawn) [Form B of pomalidomide, 4-amino-2-(2,6-dioxopiperidine-3-yl)isoindoline-1,3-dione] | converts to Form A of pomalidomide |  |  |  |  |  |  |  |  |  |  |  |  |  | 
2 | Nc1cccc2c1C(=O)N(C1CCC(=O)NC1=O)C2=O (stereo not drawn) [Pomalidomide, 4-amino-2-(2,6-dioxopiperidine-3-yl)isoindoline-1,3-dione] |  | 900 (≈ 3.29 mM) | 6000 (≈ 22 mM) | 2300 (≈ 8.42 mM) | 3500 (≈ 12.8 mM) | < 1000 | < 1000 | < 1000 | > 5000 | 4200 (≈ 15.4 mM) | 2400 (≈ 8.78 mM) | < 1000 | < 1000 | < 1000 | 1100 (≈ 4.03 mM)
